Assay results as given in US20070098649A1, “Method and composition for controlling oral pathogens” (priority 2004, published 2007).
Where two headings read alike, the source gives them in different places. Marks after values point to notes of the source that are not given here.

Columns and labels:
S. mutans [1] = experiment: Relative cell surface hydrophobicity (hexanes partition); format: cell-based
F. nucleatum [2] = experiment: as above; format: cell-based
S. mutans [3] = experiment: Growth on agar with berberine and/or methylene blue (efflux screen); format: cell-based
S. gordonii [4] = experiment: Relative cell surface hydrophobicity (hexanes partition); format: cell-based
S. mutans [5] = experiment: Viability assessment (bactericidal activity); format: cell-based
Experimental: (§1) Two representative organisms, S. mutans and F. nucleatum, were used in this study. […] Aliquots of 4 ml of agent, prepared in sterile water, were placed into sterile test tubes and 1 ml of adjusted cells was added. The control consisted of 4 ml of PBS and 1 ml of cells. Samples were removed at 0, 15, 30, and 60 minutes, serial dilutions were performed, and the appropriate dilutions plated out. The plates were incubated at 37° C. under appropriate atmospheric conditions for up to 72 hours. Viable colony counts were determined and compared to nontreated control Percentage kill was calculated using the formula: ([…]×100. Log reduction was also calculated on Log10 transformed data. Effect of Berberine on Cell Surface Hydrophobicity

F. nucleatum [6] = experiment: Viability assessment (bactericidal activity); format: cell-based
Experimental: as §1

P. gingivalis = experiment: Relative cell surface hydrophobicity (hexanes partition); format: cell-based
A. actinomycetemcomitans [7] = experiment: as above; format: cell-based
S. gordonii [8] = experiment: Growth on agar with berberine and/or methylene blue (efflux screen); format: cell-based
A. actinomycetemcomitans [9] = experiment: Accumulation of berberine, fluorimetric assay; format: cell-based; details: CCCP 100 μM added five minutes after berberine; FIG. 1
Experimental: Accumulation of berberine in A. actinomycetemcomitans was evaluated using a fluorimetric assay (based in Giraud et al., 2000). Overnight cells were harvested as previously described, washed twice with 50 mM sodium phosphate buffer (pH 7), resuspended in the same buffer at a concentration of 1×10^9 CFU ml^−1. The cells were equilibrated for 10 minutes at 37° C. Berberine was added at a final concentration of 500 μg ml^−1. After addition of berberine, 0.5 ml samples were removed at different time intervals. Five minutes after the addition of berberine, the efflux pump inhibitor carbonyl cyanide m-chlorophenylhydrazone (CCCP) was added to the reaction mixture (final concentration 100 μM). The samples were immediately diluted with 1 ml ice-cold sodium phosphate buffer and then were centrifuged for 5 minutes at 560.0×g. The pellet was washed once with 1 ml ice-cold buffer and resuspended in 1 ml of 0.1 M glycine hydrochloride (pH 3) for at least 15 hours at room temperature. The fluorescence of the supernatant was measured (excitation 355 nm and emission 517 nm) with a spectrofluorimeter (Model 810/814, Photon Technology International, Monmouth Junction, N.J.).

Streptococcus mutans [10] = experiment: MIC microdilution assay; format: cell-based; details: Streptococcus mutans, S. mutans
Streptococcus mutans [11] = experiment: Combination determination (FIC, MIC in combination); format: cell-based; details: S. mutans
Experimental: (§2) The alkaloids were tested in pair-wise combinations (fractional inhibitory concentrations, FIC) against all the bacteria to determine whether interactions were antagonistic (FIC>1), additive (0.5<FIC<1), or synergistic (FIC<0.5). The FIC was calculated by the following: (MIC Acombination/MIC Aalone)+(MIC Bcombination/MIC Balone). Where A represents compound 1 and B represents compound 2. […] In the case of A. actinomycetemcomitans and P. aeruginosa, CHX was used at 0.78 to 50 μg ml^−1. Berberine (B-CG and B-S) was used at concentrations 0.9 to 250 μg ml^−1. The antibacterial efficacy of berberine (1.95 to 500 μg ml^−1) was tested in combination against P. aeruginosa with CHX (0.78 to 50 μg ml^−1) (Sigma Chemicals) and the polymyxin antibiotic Col (0.04 to 25 μg ml^−1) (Sigma Chemicals). The plates were incubated for 24 hours.
CHX was diluted from left to right at 10 to 0.08 μg ml^−1 ([…] 1 to 8), berberine was diluted from top to bottom at 250 to 0.09 μg ml^−1 ([…] 1 to 8). Column 9 was the cell control, column 10 was berberine alone (250 to 0.09 μg ml^−1); and column 11 was CHX alone (10 to 0.08 μg ml^−1). Row H was the solvent control (8% DMSO, H1 to H8). Column 12 was the media blank. The dilution assay was designed such that A1 contained the highest concentration of both agents (berberine 250 μg ml^−1 and CHX 10 μg ml^−1). The final concentration of berberine in wells A2 to A8 was […]. The FIC value was calculated from well C6. FIC was calculated by: (MIC Acombination/MIC Aalone)+(MIC Bcombination/MIC Balone).

Porphymonas gingivalis [12] = experiment: MIC microdilution assay; format: cell-based; details: Porphyromonas gingivalis, P. gingivalis
Pseudomonas aeruginosa [13] = experiment: MIC microdilution assay; format: cell-based; details: Pseudomonas aeruginosa; P. aeruginosa; agent alone; read-out: MIC of the antimicrobial agents alone
Escherichia coli [14] = experiment: MIC microdilution assay; format: cell-based; details: E. coli, agent alone, read-out: MIC of the antimicrobial agents alone
Fusobacterium nucleatum [15] = experiment: MIC microdilution assay; format: cell-based; details: Fusobacterium nucleatum, F. nucleatum
oral pathogens = experiment: Combination determination, statements on the oral pathogens; format: cell-based; details: berberine hydrochloride / berberine (B-CG and B-S)
Experimental: as §2

test bacteria = experiment: Relative cell surface hydrophobicity, statements on the test bacteria; format: cell-based; details: summary of Table 12
Staphylococcus aureus [16] = experiment: MIC microdilution assay; format: cell-based; details: S. aureus, agent alone, read-out: MIC of the antimicrobial agents alone
[17] = system: Actinobacillus actinomycetemcomitans; experiment: MIC microdilution assay; format: cell-based; details: Aggregatibacter actinomycetemcomitans
Streptococcus gordonii [18] = experiment: MIC microdilution assay; format: cell-based; details: Streptococcus gordonii, S. gordonii
Porphymonas gingivalis [19] = experiment: Combination determination (FIC, MIC in combination); format: cell-based; details: P. gingivalis
Experimental: as §2

Fusobacterium nucleatum [20] = experiment: as above; format: cell-based; details: F. nucleatum
Experimental: as §2

Escherichia coli [21] = experiment: as above; format: cell-based; details: E. coli
Experimental: as §2

Streptococcus gordonii [22] = experiment: as above; format: cell-based; details: S. gordonii
Experimental: as §2

[23] = system: Actinobacillus actinomycetemcomitans; experiment: as above; format: cell-based; details: A. actinomycetemcomitans grown under anaerobic conditions; berberine (B-CG) combined with CHX, Tet or Dox; MIC of the named agent in the combination
Experimental: as §2

Staphylococcus aureus [24] = experiment: as above; format: cell-based; details: S. aureus
Experimental: as §2

Pseudomonas aeruginosa [25] = experiment: as above; format: cell-based; details: P. aeruginosa
Experimental: as §2

[26] = rats; oral; tritiated; cited from earlier work
wild type S. aureus = details: cited from earlier work
[27] = agar with 62.5, 125, 250 μg ml^−1, 48 hours at 37° C.
[28] = agent alone, read-out: MIC of the antimicrobial agents alone
[29] = berberine (B-CG) combined with CHX, Tet or Dox, MIC of the named agent in the combination
[30] = berberine hydrochloride / chloride

Compound: COc1ccc2cc3[n+](cc2c1OC)CCc1cc2c(cc1-3)OCO2 [B-CG, berberine chloride]
- Typical reduction scores on relative cell surface hydrophobicity (S. mutans [1]; berberine 500 μg ml^−1): 14.8%
- Typical reduction scores on relative cell surface hydrophobicity (F. nucleatum [2]; berberine 500 μg ml^−1): 29.9%
- Concentration of B-CG in agar at which growth occurred (S. mutans [3]; [27]): 62.5 µg/mL
- Typical reduction scores on relative cell surface hydrophobicity (S. gordonii [4]; berberine 500 μg ml^−1): 26.1%
- Viability after 60 min exposure (mean Log10 reduction of CFU) (S. mutans [5]; B-CG (500) μg ml^−1): 0 Log10
- Viability after 60 min exposure (mean Log10 reduction of CFU) (S. mutans [5]; B-CG (1000) μg ml^−1): 1 Log10
- Viability after 60 min exposure (mean Log10 reduction of CFU) (F. nucleatum [6]; B-CG (500) μg ml^−1): 2.77 Log10
- Viability after 60 min exposure (mean Log10 reduction of CFU) (F. nucleatum [6]; B-CG (1000) μg ml^−1): 3.22 Log10
- Typical reduction scores on relative cell surface hydrophobicity (P. gingivalis; berberine 500 μg ml^−1): 26.7%
- Typical reduction scores on relative cell surface hydrophobicity (A. actinomycetemcomitans [7]; berberine 500 μg ml^−1): −31.6%
- Concentration of B-CG in agar at which growth occurred (S. gordonii [8]; [27]): 62.5 µg/mL

Compound: N#CC(C#N)=NNc1cccc(Cl)c1 [CCCP, carbonyl cyanide m-chlorophenylhydrazone]
- Effect on berberine accumulation (A. actinomycetemcomitans [9]): very rapid and marked increase in berberine accumulation

Compound: [H]/N=C(\N/C(=N/[H])NCCCCCCNC(=N)NC(=N)Nc1ccc(Cl)cc1)Nc1ccc(Cl)cc1 [CHX, chlorhexidine gluconate]
- MIC (Streptococcus mutans [10]; [28]): 1.25 µg/mL
- MIC (Streptococcus mutans [10]; Sm, read-out: MIC of Goldenseal Alkaloids Against Selected Oral Pathogens): 1.25 µg/mL
- MIC of the antimicrobial agents in combination (Streptococcus mutans [11]; [29]): 0.04 µg/mL
- Approximate amount of antibiotic required when combined with berberine relative to when the agent is used alone (Streptococcus mutans [11]; fraction of the amount alone): <½
- MIC alone used for the FIC (Streptococcus mutans [11]; same plate, 48 h): 1.25 µg/mL
- MIC in combination used for the FIC (Streptococcus mutans [11]; well C6, berberine (B-G) with CHX, 48 h): 0.3125 µg/mL
- MIC (Porphymonas gingivalis [12]; [28]): 1.25 µg/mL
- MIC (Porphymonas gingivalis [12]; Pg, read-out: MIC of Goldenseal Alkaloids Against Selected Oral Pathogens): 2.5 µg/mL
- MIC (Pseudomonas aeruginosa [13]): 6.25 µg/mL
- MIC (Escherichia coli [14]): 1.25 µg/mL
- Typical reduction scores on relative cell surface hydrophobicity (S. mutans [1]; agent alone 5 μg ml^−1): 5.1%
- Typical reduction scores on relative cell surface hydrophobicity (F. nucleatum [2]; agent alone 5 μg ml^−1): 3.7%
- MIC (Fusobacterium nucleatum [15]; [28]): 2.5 µg/mL
- MIC (Fusobacterium nucleatum [15]; Fn, read-out: MIC of Goldenseal Alkaloids Against Selected Oral Pathogens): 2.5 µg/mL
- Growth inhibition effect when combined with berberine (oral pathogens): synergistic
- Effect on the relative hydrophobicity of the cells (test bacteria): did not appear to affect
- Typical reduction scores on relative cell surface hydrophobicity (S. gordonii [4]; agent alone 5 μg ml^−1): −6.3%
- MIC (Staphylococcus aureus [16]): 2.5 µg/mL
- Viability after 60 min exposure (mean Log10 reduction of CFU) (S. mutans [5]; CHX (20) μg ml^−1): 1.69 Log10
- Viability after 60 min exposure (mean Log10 reduction of CFU) (F. nucleatum [6]; CHX (20)): 3.09* Log10
- MIC ([17]; A. actinomycetemcomitans grown under anaerobic conditions, agent alone, read-out: MIC of the antimicrobial agents alone): 50 µg/mL
- MIC ([17]; Aa, A. actinomycetemcomitans, read-out: MIC of Goldenseal Alkaloids Against Selected Oral Pathogens): 50 µg/mL
- MIC (Streptococcus gordonii [18]; [28]): 5 µg/mL
- MIC (Streptococcus gordonii [18]; Sg, read-out: MIC of Goldenseal Alkaloids Against Selected Oral Pathogens): 5 µg/mL
- Typical reduction scores on relative cell surface hydrophobicity (P. gingivalis; agent alone 5 μg ml^−1): −2.7%
- Typical reduction scores on relative cell surface hydrophobicity (A. actinomycetemcomitans [7]; agent alone 5 μg ml^−1): −2.6%
- MIC of the antimicrobial agents in combination (Porphymonas gingivalis [19]; [29]): 0.08 µg/mL
- Approximate amount of antibiotic required when combined with berberine relative to when the agent is used alone (Porphymonas gingivalis [19]; fraction of the amount alone): <½
- MIC of the antimicrobial agents in combination (Fusobacterium nucleatum [20]; [29]): 0.31 µg/mL
- Approximate amount of antibiotic required when combined with berberine relative to when the agent is used alone (Fusobacterium nucleatum [20]; fraction of the amount alone): <½
- MIC of the antimicrobial agents in combination (Escherichia coli [21]; [29]): 0.63 µg/mL
- Growth inhibition effect when combined with berberine (Escherichia coli [21]; [30]): synergistic
- Approximate amount of antibiotic required when combined with berberine relative to when the agent is used alone (Escherichia coli [21]; fraction of the amount alone): ½
- MIC of the antimicrobial agents in combination (Streptococcus gordonii [22]; [29]): 0.63 µg/mL
- Approximate amount of antibiotic required when combined with berberine relative to when the agent is used alone (Streptococcus gordonii [22]; fraction of the amount alone): <½
- MIC of the antimicrobial agents in combination [23]: 50 µg/mL
- MIC of the antimicrobial agents in combination (Staphylococcus aureus [24]; [29]): 0.63 µg/mL
- Growth inhibition effect when combined with berberine (Staphylococcus aureus [24]; [30]): synergistic
- Approximate amount of antibiotic required when combined with berberine relative to when the agent is used alone (Staphylococcus aureus [24]; fraction of the amount alone): ½
- Interaction when combined with berberine (Pseudomonas aeruginosa [25]): no clear additive or synergistic effect
- MIC of the antimicrobial agents in combination (Pseudomonas aeruginosa [25]; berberine combined with CHX or Col, MIC of the named agent in the combination): 3.13** μg ml^−1

Compound: COc1ccc2cc3[n+](cc2c1OC)CCc1cc2c(cc1-3)OCO2 [berberine chloride]
- Excretion after 48 hours [26]: majority of the administered dose had been excreted in feces
- Time of peak levels in liver and muscles [26]: 12 h

Compound: CN(C)c1ccc2nc3ccc(=[N+](C)C)cc-3sc2c1 [methylene blue (MB), methylene blue]
- Growth on agar in the presence of methylene blue (S. mutans [3]; 50 μg/ml): did not grow
- Growth on agar in the presence of methylene blue (S. gordonii [8]; 50 μg/ml): did not grow

Compound: COC(=O)[C@H]1[C@H]2C[C@@H]3c4[nH]c5cc(OC)ccc5c4CCN3C[C@H]2C[C@@H](OC(=O)c2cc(OC)c(OC)c(OC)c2)[C@@H]1OC [reserpine]
- Inhibition of the efflux of norfloxacin (wild type S. aureus): at least four
